Assay results published in patent publication US11235001B2, “RUNX inhibitor” (KYOTO UNIVERSITY, priority 2016, dated 2022).

Legend:
A549 cells = assay: Xenograft lung cancer mouse model (A549); format: in vivo
NB4 (p53MT) = assay: cells; details: Homo sapiens
UF1 (p53Null) = assay: cells; details: Homo sapiens
KG1a = assay: cells; details: Homo sapiens, KG-1a, 48 h, read-out: IC50 (μM) of PRIMA-1 single agent administration
HL60 = assay: cells; details: Homo sapiens, HL-60, 48 h, read-out: IC50 (μM) of PRIMA-1 single agent administration
Kasumi-1 = assay: cells; details: Homo sapiens, Kasumi 1, 48 h, read-out: IC50 (μM) of PRIMA-1 single agent administration
THP-1 = assay: cells; details: Homo sapiens, THP-1, 48 h, read-out: IC50 (μM) of PRIMA-1 single agent administration
MV4-11NR = assay: cells; details: Homo sapiens, 48 h, read-out: IC50 (μM) of PRIMA-1 single agent administration
SU/SR cells [1] = assay: Xenograft ALL mouse model (SU/SR); format: in vivo; details: NOG mice with SU/SR
[2] = test system: p53-mutated colon cancer cell line HT29; details: HT29, 72 hours
DU-145 cells = assay: cells; details: Homo sapiens, DU-145, 48 h, read-out: IC50 (μM) in DU-145 cells
LNCaP cells = assay: cells; details: Homo sapiens, 48 h, read-out: IC50 (μM) in LNCaP cells
[3] = test system: medulloblastoma cell line DAOY; assay: cells; details: Homo sapiens, 48 h
SU-Ph2 cells = assay: Cell growth inhibition assay, SU-Ph2 cells; format: cell-based, human; details: SU-Ph2, 48 hours
[4] = test system: AML cell lines expressing functional p53 (MV4-11, OCI-AML2, OCI-AML3 and MOLM-13); assay: Growth inhibition assay of AML cell lines expressing functional p53; format: cell-based, human; details: 48 hours; at between nanomolar to low micromolar levels
Experimental: Growth inhibition of some AML cell lines expressing functional p53 (MV4-11, OCI-AML2, OCI-AML3 and MOLM-13) by PI polyamide conjugates at different concentrations was tested. Briefly, the cells were placed at a density of 1×10^5 cells/mL. Different concentrations of a PI polyamide conjugate (Chb-M′ or Chb-50) were added to media, and the cells were incubated for 48 hours (n=3). The number of viable cells when the PI polyamide conjugate was not added was used as a control (DMSO control). Cell viability was assessed by counting the viable cells with Cell Count Reagent SF (Nacalai tesque, Inc.) and Infinite (registered trademark) 200 PRO multimode reader (TECAN) according to the manufacturer's instructions.

IL3, CSF2 and CSF2RB = assay: qRT-PCR of RUNX1 target genes in MV4-11 cells; format: cell-based, human; details: 5 μM, 6 hours
[5] = test system: BCL11A, TRIM24, p53, p21, BAX, PUMA and MDM2; assay: qRT-PCR of p53 suppressors and p53 target genes in MV4-11 cells; format: cell-based, human; details: 1 μM, 6 hours
Experimental: A total RNA was isolated with RNeasy mini kit (Qiagen) and reverse transcribed with Reverse script kit (TOYOBO) to generate cDNA. Real-time quantitative polymerase chain reaction (PCR) was carried out with 7500 Real-Time PCR System (Applied Biosystems) according to the manufacturer's instructions. Results were normalized to GAPDH levels. Relative expression levels were calculated using the 2-ΔΔCt method.

[6] = test system: BCL11A, TRIM24, p21, BAX, PUMA, MDM2, PARP, cleaved caspase-3; assay: Immunoblotting of p53 pathway and apoptosis proteins in MV4-11 cells; format: cell-based, human; details: 1 μM, 24 hours
Experimental: Cells were washed twice with ice cold phosphate-buffered saline (PBS) and harvested in protein lysis buffer [50 mM Tris (pH 7.4), 100 mM NaCl, 0.1 mM EDTA, 1 mM phenylmethylsulfonyl fluoride, 1 mM β-glycerophosphate, 2.5 mM sodium pyrophosphate, 1 mM Na3VO4, lx protease inhibitor (Roche) and PhosSTOP (Roche)]. Whole cell extracts were separated by SDS-polyacrylamide gel electrophoresis (SDS-PAGE) and electrotransferred onto polyvinylidene difluoride membranes. Membranes were probed with the following antibodies: anti-Ctip1 antibody (Abcam, ab19487), anti-TRIM24 antibody (Bethyl Laboratories, Inc), anti-RUNX1 antibody (A-2), anti-GAPDH (FL-335), anti-p21 (C-19), anti-Bax (N-20) antibodies (Santa Cruz Biotechnology, Inc.), anti-RUNX2, anti-RUNX3, anti-p53 antibodies (Cell Signaling Technology), anti-CBFβ antibody (FL-182, Santa Cruz Biotechnology, Inc.), anti-cleaved caspase-3 antibody (5A1E, Cell Signaling Technology), anti-PARP antibody (46D11, Cell Signaling Technology). For secondary antibodies, anti-rabbit IgG, or anti-mosue IgG HRP-linked antibodies (Cell Signaling Technology) were used. Blots were detected using Chemi-Lumi One Super (nacalai tesque, Inc.) and ChemiDoc™ XRS+ Imager (Bio-Rad Laboratories, Inc.), as recommended by the manufacturers. Protein levels were quantified with Image Lab Software (Bio-Rad Laboratories, Inc.).
Briefly, MV4-11 cells were treated with 1 μM Chb-M′ or Chb-50 for 24 hours. The treated cells were dissolved in the protein lysis buffer. Whole cell extracts were resolved by SDS-polyacrylamide gel electrophoresis (SDS-PAGE) and transferred onto polyvinylidene difluoride membranes. The membranes were probed with each antibody. Blots were detected and quantified. As a control, the cells treated with DMSO were used.

[7] = test system: RUNX family (RUNX1, RUNX2 and RUNX3); assay: Gene expression microarray in MV4-11 cells vs RUNX family knockdown; format: cell-based, human; details: 1 μM, 6 hours, top 500 up- and down-regulated genes
SU/SR cells [8] = details: read-out: IC50 value; SU/SR (imatinib-resistant), 48 hours
MV4-11 cells = assay: Xenograft AML mouse model (MV4-11); format: in vivo; details: NOG mice with MV4-11, day 14

SMILES: COc1cc2ncnc(Nc3ccc(F)c(Cl)c3)c2cc1OCCCN1CCOCC1 [gefitinib, reference compound]
- Effect on the lung cancer model (A549 cells; A549 xenograft): did not show effect
- H&E staining of lung tissue (lung cancer cells in pulmonary alveoli) (A549 cells; day 14 after transplantation): densely filled with lung cancer cells
- Brightness of luciferase (IVIS), lung (A549 cells; day 14 after transplantation, after 2 administrations): increased
- Brightness of luciferase (IVIS), lung (A549 cells; day 21 after transplantation, after total 4 administrations): increased

SMILES: CC1=C(/C=C/C(C)=C/C=C/C(C)=C/C(=O)O)C(C)(C)CCC1 [ATRA, all-trans-retinoic acid]
- IC50 (NB4 (p53MT); 48 h): 75.7 µM
- IC50 (NB4 (p53MT); 72 h): 60.1 µM
- IC50 (UF1 (p53Null); 48 h): 12.4 µM
- IC50 (UF1 (p53Null); 72 h): 10.3 µM

SMILES: O=C1C2CCN(CC2)C1(CO)CO [PRIMA-1, 2,2-bis(hydroxymethyl)-1-azabicyclo[2.2.2]octan-3-one]
- IC50 (KG1a): > 100 µM
- IC50 (HL60): 5.74 µM
- IC50 (Kasumi-1): 7.03 µM
- IC50 (THP-1): 6 µM
- IC50 (MV4-11NR): 5.5 µM

SMILES: Cc1ccc(NC(=O)c2ccc(CN3CCN(C)CC3)cc2)cc1Nc1nccc(-c2cccnc2)n1 [imatinib, reference compound]
- H&E staining of bone marrow (SU/SR cells [1]): little change
- Invasion of liver by transplanted PhALL cells (hCD45 staining) (SU/SR cells [1]): not inhibited
- Invasion of spleen by transplanted PhALL cells (hCD45 staining), compared with liver (SU/SR cells [1]): same results
- hCD45 staining of bone marrow (human leukemia cells) (SU/SR cells [1]): filled with leukemia cells

SMILES: O=C(O)CCCc1ccc(N(CCCl)CCCl)cc1 [Chlorambucil]
- IC50 (μM) [2]: Not measurable
- IC50 (DU-145 cells): 38.1 µM
- IC50 (LNCaP cells): 37.6 µM
- IC50 [3]: 18.2 µM

SMILES: CN(C)CCCNC(=O)c1nc(NC(=O)c2nc(NC(=O)c3cc(NC(=O)c4nc(NC(=O)CCCNC(=O)c5cc(NC(=O)c6nc(NC(=O)c7cc(NC(=O)c8cc(NC(=O)CCNC(=O)CCCc9ccc(N(CCCl)CCCl)cc9)cn8C)cn7C)cn6C)cn5C)cn4C)cn3C)cn2C)cn1C [Chb-50]
- IC50 compared with that of imatinib (SU-Ph2 cells): lower IC50 values
- Growth inhibition of AML cells [4]: highly effective
- Expressions of RUNX1 target genes (IL3, CSF2, and CSF2RB), mRNA (IL3, CSF2 and CSF2RB): effectively inhibited
- Gene expressions of p53 suppressors BCL11A and TRIM24 [5]: down-regulated
- mRNA expression level of p53 [5]: unchanged
- mRNA expression levels of p21 and PUMA [5]: increased
- Cleaved form of PARP and cleaved caspase-3 (apoptosis) [6]: emergence
- Protein expression levels of p53 and downstream proteins (p21, BAX) [6]: increased
- Protein expression levels of suppressors of p53 (BCL11A and TRIM24) [6]: reduced
- Gene expression pattern vs cells with all RUNX family members knockdown [7]: significantly correlated
- IC50 (SU/SR cells [8]): 1.42 µM

SMILES: Nc1ccn([C@@H]2O[C@H](CO)[C@@H](O)[C@@H]2O)c(=O)n1 [cytarabine, reference compound]
- H&E staining of bone marrow (MV4-11 cells): little change
- hCD45 staining of bone marrow (human leukemia cells) (MV4-11 cells): filled with leukemia cells
